Where two headings read alike, the source gives them in different places.
What was measured:
[1] = test system: ATR-driven phosphorylation of Chk1 kinase at Serine 345 in HT-29 colorectal adenocarcinoma cells; assay: pCHK1 cellular assay (CHK1 p-Ser345 AlphaScreen SureFire); format: cell-based; settings: 4-nitroquinoline N-oxide 12 uM, read-out: Cell IC50 (pCHK1 IC50 values)
Method in brief: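 HT-29 cells seeded overnight, treated with 1:3 serially diluted compound for 90 minutes at 37° C., then 12 uM (final) 4-nitroquinoline N-oxide for 120 minutes. Lysates read for Chk1 p-Ser345 by AlphaScreen SureFire; IC50 from four-parameter logistic fit, normalized to DMSO (max) and 5 uM ATR inhibitor (min).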

ATR/ATRIP complex = ATR/ATRIP complex (Homo sapiens (Human), UniProt Q13535); assay: ATR/ATRIP enzymatic assay (Caliper-based); format: biochemical; settings: FAM-labeled RAD17 peptide, ATP
Method in brief: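 FLAG-TEV-ATR/His6-ATRIP co-expressed in HEK293 and anti-FLAG purified. Compound preincubated 30 min at 28 °C with enzyme (2x solution 4 nM), then FAM-RAD17 peptide (2x solution 10 uM, 2 μM ATP) added for 6 h at 28 °C; HEPES pH 8, 10 mM MnCl2. Caliper conversion read-out, IC50 from four-parameter fit.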

[2] = Homo sapiens, HT-29, HT-29 cells
[3] = read-out: ATR/ATRIP Enzyme IC50
[4] = estimated range, read-out: ATR/ATRIP Enzyme IC50 (estimated class)

Sequence of ATR/ATRIP complex (Q13535 whole entry): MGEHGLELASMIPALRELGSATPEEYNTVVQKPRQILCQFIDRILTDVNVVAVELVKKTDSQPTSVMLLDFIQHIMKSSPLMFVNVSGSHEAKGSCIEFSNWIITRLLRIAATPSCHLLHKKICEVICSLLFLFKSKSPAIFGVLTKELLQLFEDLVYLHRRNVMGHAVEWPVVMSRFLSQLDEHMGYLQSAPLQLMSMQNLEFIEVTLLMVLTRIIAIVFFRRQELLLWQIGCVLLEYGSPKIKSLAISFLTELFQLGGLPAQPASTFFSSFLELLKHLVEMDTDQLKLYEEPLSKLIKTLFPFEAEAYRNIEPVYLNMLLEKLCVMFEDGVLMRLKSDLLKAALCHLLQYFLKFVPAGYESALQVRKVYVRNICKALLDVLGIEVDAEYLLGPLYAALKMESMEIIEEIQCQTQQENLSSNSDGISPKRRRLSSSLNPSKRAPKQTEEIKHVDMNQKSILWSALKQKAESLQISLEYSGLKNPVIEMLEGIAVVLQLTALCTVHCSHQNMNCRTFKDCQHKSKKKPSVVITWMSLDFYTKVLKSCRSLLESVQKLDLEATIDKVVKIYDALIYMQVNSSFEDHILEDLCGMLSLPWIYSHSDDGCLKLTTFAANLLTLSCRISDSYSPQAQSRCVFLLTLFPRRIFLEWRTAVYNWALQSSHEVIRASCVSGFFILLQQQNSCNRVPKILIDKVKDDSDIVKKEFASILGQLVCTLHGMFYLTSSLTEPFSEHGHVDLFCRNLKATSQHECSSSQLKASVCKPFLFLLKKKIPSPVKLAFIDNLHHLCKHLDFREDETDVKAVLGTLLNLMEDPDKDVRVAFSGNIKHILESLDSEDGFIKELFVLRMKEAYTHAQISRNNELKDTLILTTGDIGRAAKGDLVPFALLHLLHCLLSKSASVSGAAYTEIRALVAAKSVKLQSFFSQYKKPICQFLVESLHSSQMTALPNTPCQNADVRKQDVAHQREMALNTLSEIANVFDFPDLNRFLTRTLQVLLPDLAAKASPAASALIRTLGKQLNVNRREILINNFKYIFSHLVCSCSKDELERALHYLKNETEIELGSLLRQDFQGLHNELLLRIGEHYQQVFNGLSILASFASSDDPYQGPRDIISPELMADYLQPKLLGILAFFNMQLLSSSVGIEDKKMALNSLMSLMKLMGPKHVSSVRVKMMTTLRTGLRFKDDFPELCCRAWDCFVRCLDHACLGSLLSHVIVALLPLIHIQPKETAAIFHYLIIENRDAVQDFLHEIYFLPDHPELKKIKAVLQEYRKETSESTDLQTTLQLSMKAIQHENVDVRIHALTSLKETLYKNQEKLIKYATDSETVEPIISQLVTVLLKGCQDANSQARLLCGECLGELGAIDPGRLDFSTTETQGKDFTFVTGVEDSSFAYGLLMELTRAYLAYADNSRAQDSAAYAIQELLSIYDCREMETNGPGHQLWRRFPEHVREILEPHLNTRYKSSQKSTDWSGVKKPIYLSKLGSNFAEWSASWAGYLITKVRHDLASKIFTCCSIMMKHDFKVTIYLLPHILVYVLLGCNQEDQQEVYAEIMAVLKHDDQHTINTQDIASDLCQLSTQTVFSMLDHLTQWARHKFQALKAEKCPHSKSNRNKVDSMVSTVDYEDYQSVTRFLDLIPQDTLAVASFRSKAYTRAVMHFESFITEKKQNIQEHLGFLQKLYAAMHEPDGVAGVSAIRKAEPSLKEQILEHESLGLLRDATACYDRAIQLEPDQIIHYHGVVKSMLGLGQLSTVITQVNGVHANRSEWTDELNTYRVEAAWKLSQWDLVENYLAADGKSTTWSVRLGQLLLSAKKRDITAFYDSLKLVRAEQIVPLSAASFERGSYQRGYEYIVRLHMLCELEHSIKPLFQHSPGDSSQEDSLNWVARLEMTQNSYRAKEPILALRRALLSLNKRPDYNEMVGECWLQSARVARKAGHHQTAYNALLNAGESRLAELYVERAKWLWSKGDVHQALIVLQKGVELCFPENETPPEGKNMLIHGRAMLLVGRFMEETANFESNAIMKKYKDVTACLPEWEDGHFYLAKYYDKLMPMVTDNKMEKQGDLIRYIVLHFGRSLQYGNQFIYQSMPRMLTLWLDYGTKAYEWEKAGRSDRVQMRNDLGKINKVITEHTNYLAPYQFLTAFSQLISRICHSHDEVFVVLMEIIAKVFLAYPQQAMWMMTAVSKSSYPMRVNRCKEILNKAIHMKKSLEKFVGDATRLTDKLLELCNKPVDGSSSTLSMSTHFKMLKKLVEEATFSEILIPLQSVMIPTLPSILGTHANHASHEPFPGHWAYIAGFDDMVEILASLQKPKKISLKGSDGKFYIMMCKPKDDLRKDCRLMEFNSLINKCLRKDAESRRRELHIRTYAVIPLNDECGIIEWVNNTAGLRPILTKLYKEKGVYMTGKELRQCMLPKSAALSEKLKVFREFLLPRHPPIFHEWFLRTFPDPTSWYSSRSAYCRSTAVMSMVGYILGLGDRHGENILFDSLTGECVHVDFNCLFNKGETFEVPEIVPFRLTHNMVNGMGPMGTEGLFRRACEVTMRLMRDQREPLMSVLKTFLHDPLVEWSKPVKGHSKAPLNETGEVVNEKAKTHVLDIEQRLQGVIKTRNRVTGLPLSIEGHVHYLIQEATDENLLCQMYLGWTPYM
Sequence of ATR/ATRIP complex (Q8WXE1 whole entry partner): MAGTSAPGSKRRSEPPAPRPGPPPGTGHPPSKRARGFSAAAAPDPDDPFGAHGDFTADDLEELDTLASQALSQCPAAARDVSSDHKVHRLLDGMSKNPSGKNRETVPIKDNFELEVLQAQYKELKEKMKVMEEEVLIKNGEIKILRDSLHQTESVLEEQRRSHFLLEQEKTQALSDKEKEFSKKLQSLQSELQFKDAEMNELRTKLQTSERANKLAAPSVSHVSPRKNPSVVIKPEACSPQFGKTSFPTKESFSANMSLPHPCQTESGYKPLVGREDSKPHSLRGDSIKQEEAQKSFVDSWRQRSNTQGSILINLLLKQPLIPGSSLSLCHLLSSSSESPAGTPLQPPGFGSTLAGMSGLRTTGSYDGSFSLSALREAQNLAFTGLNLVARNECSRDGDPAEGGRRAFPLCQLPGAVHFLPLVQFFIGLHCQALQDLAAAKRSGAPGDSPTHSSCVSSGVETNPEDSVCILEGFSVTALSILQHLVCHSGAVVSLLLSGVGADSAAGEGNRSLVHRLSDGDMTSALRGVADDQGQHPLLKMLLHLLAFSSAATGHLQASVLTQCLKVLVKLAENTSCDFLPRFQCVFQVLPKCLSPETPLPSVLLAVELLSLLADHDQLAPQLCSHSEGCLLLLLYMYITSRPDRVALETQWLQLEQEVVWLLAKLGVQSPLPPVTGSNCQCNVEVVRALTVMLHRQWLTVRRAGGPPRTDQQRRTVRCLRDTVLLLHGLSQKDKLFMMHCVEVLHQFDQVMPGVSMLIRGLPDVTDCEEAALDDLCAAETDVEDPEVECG

Row | Compound | IC50 [1, 2] [nM] | IC50 (ATR/ATRIP complex; [3]) [nM] | IC50 ([1]; HT-29 cells) [nM] | IC50 (ATR/ATRIP complex; [4]) [nM]
1 | COc1cc(N2Cc3c(ncnc3C3CCN(S(C)(=O)=O)CC3)C[C@H]2C)c2cc[nH]c2n1 [Example 91, (R)-6-(6-methoxy-1H-pyrrolo[2,3-b]pyridin-4-yl)-7-methyl-4-(1-(methylsulfonyl)-piperidin-4-yl)-5,6,7,8-tetrahydropyrido[4,3-d]-pyrimidine] | 18 | 269 | – | –
2 | C[C@@H]1Cc2ncnc(N3CCC(C)(O)CC3)c2CN1c1cc(Cl)nc2[nH]ccc12 [Example 66, (R)-1-(6-(6-chloro-1H-pyrrolo[2,3-b]pyridin-4-yl)-7-methyl-5,6,7,8-tetrahydropyrido[4,3-d]-pyrimidin-4-yl)-4-methyl-piperidin-4-ol] | 25 | 584 | – | –
3 | C[C@@H]1Cc2ncnc(N3CCC(S(C)(=O)=O)CC3)c2CN1c1cc(Cl)nc2[nH]ccc12 [Example 9, (R)-6-(6-Chloro-1H-pyrrolo[2,3-b]pyridin-4-yl)-7-methyl-4-(4-(methylsulfonyl)-piperidin-1-yl)-5,6,7,8-tetrahydropyrido[4,3-d]pyrimidine bis(trifluoroacetate)] | 25 | 442 | – | –
4 | COC(=O)[C@H]1CCCN(c2ncnc3c2CN(c2cc(Cl)nc4[nH]ccc24)[C@H](C)C3)C1 [Example 63, Methyl (S)-1-((R)-6-(6-chloro-1H-pyrrolo[2,3-b]pyridin-4-yl)-7-methyl-5,6,7,8-tetrahydropyrido-[4,3-d]pyrimidin-4-yl)-piperidine-3-carboxylate] | 57 | 86 | – | –
5 | CNC(=O)[C@H]1CCCN(c2ncnc3c2CN(c2cc(Cl)nc4[nH]ccc24)[C@H](C)C3)C1 [Example 67, (S)-1-((R)-6-(6-chloro-1H-pyrrolo[2,3-b]pyridin-4-yl)-7-methyl-5,6,7,8-tetrahydropyrido[4,3-d]-pyrimidin-4-yl)-N-methylpiperidine-3-carboxamide] | 9 | 140 | – | –
6 | C[C@@H]1Cc2ncnc(N3CCCC(S(C)(=O)=O)C3)c2CN1c1ccnc2[nH]ccc12 (stereo partly drawn) [Example 18, 3-methanesulfonyl-1-[(7R)-7-methyl-6-{1H-pyrrolo[2,3-b]pyridin-4-yl}-5H,6H,7H,8H-pyrido[4,3-d]pyrimidin-4-yl]piperidine] | 133 | 420 | – | –
7 | CCOc1cc(N2Cc3c(ncnc3C3CCN(S(C)(=O)=O)CC3)C[C@H]2C)c2cc[nH]c2n1 [Example 54, (R)-6-(6-ethoxy-1H-pyrrolo[2,3-b]pyridin-4-yl)-7-methyl-4-(1-(methylsulfonyl)piperidin-4-yl)-5,6,7,8-tetrahydropyrido[4,3-d]pyrimidine] | 10 | 123 | – | –
8 | C[C@@H]1Cc2ncnc(C3C[C@H]4CC[C@@H](C3)N4S(C)(=O)=O)c2CN1c1cc(Cl)nc2[nH]ccc12 (single isomer, unassigned) [Example 11a] | – | 555 | 28 | –
9 | CC1Cc2ncnc(-c3cccc(S(C)(=O)=O)c3)c2CN1c1ccnc2[nH]ccc12 (stereo not drawn) [Example 15, 4-(3-methanesulfonyl-phenyl)-7-methyl-6-{1H-pyrrolo[2,3-b]pyridin-4-yl}-5H,6H,7H,8H-pyrido[4,3-d]pyrimidine] | 152 | – | – | 1000 to 10000
10 | CS(=O)(=O)N1CCC(c2ncnc3c2CN(c2ccnc4[nH]ccc24)[C@H](CF)C3)CC1 [Example 52b, (S)-7-(fluoromethyl)-4-(1-(methylsulfonyl)piperidin-4-yl)-6-(1H-pyrrolo[2,3-b]pyridin-4-yl)-5,6,7,8-tetrahydropyrido[4,3-d]pyrimidine] | 209 | 878 | – | –
11 | C[C@@H]1Cc2ncnc(C3CCN(S(C)(=O)=O)CC3)c2CN1c1nccc2[nH]ccc12 [Example 59, (R)-7-methyl-4-(1-(methylsulfonyl)piperidin-4-yl)-6-(1H-pyrrolo[3,2-c]pyridin-4-yl)-5,6,7,8-tetrahydropyrido[4,3-d]pyrimidine] | 555 | 2650 | – | –
12 | C[C@@H]1Cc2ncnc(N3CCC4(CC3)CNC(=O)O4)c2CN1c1cc(Cl)nc2[nH]ccc12 [Example 31, 8-[(7R)-6-{6-chloro-1H-pyrrolo[2,3-b]pyridin-4-yl}-7-methyl-5H,6H,7H,8H-pyrido[4,3-d]pyrimidin-4-yl]-1-oxa-3,8-diazaspiro[4.5]decan-2-one] | 72 | 434 | – | –
13 | C[C@@H]1Cc2ncnc(C3CCN(S(C)(=O)=O)CC3)c2CN1c1cc(Cl)nc2[nH]ccc12 [Example 7, (R)-6-(6-Chloro-1H-pyrrolo[2,3-b]pyridin-4-yl)-7-methyl-4-(1-(methylsulfonyl)-piperidin-4-yl)-5,6,7,8-tetrahydropyrido[4,3-d]pyrimidine bis(trifluoroacetate)] | 32 | 163 | – | –
14 | C[C@@H]1Cc2ncnc(N3CC(NS(C)(=O)=O)C3)c2CN1c1ccnc2[nH]ccc12 [Example 84, (R)-N-(1-(7-methyl-6-(1H-pyrrolo[2,3-b]-pyridin-4-yl)-5,6,7,8-tetrahydropyrido[4,3-d]pyrimidin-4-yl)-azetidin-3-yl)-methanesulfonamide] | 79 | 722 | – | –
15 | CS(=O)(=O)N1CCC(c2ncnc3c2CN(c2ccnc4[nH]ccc24)[C@H](C(F)F)C3)CC1 [Example 53b] | – | 2420 | 485 | –
16 | C[C@@H]1Cc2ncnc(N3CCC(NS(C)(=O)=O)CC3)c2CN1c1ccnc2[nH]ccc12 [Example 64, (R)-N-(1-(7-methyl-6-(1H-pyrrolo[2,3-b]-pyridin-4-yl)-5,6,7,8-tetrahydropyrido[4,3-d]-pyrimidin-4-yl)piperidin-4-yl)methanesulfonamide] | 16 | 472 | – | –
17 | C[C@@H]1Cc2ncnc(N3CCC(S(C)(=N)=O)CC3)c2CN1c1cc(Cl)nc2[nH]ccc12 (stereo partly drawn) [Example 58, (1-((R)-6-(6-chloro-1H-pyrrolo[2,3-b]pyridin-4-yl)-7-methyl-5,6,7,8-tetrahydropyrido[4,3-d]pyrimidin-4-yl)piperidin-4-yl)(imino)(methyl)-λ^6-sulfanone] | 218 | 966 | – | –
18 | C[C@@H]1Cc2ncnc(N3CCCC(S(C)(=O)=O)C3)c2CN1c1cc(Cl)nc2[nH]ccc12 (stereo partly drawn) [Example 65, (7R)-6-(6-chloro-1H-pyrrolo[2,3-b]pyridin-4-yl)-7-methyl-4-(3-(methylsulfonyl)-piperidin-1-yl)-5,6,7,8-tetrahydropyrido[4,3-d]-pyrimidine] | 8 | 159 | – | –
19 | C[C@@H]1Cc2ncnc(C3CCN(S(C)(=O)=O)CC3)c2CN1c1cc(OC2CCC2)nc2[nH]ccc12 [Example 99, (R)-6-(6-cyclobutoxy-1H-pyrrolo[2,3-b]pyridin-4-yl)-7-methyl-4-(1-(methylsulfonyl)piperidin-4-yl)-5,6,7,8-tetrahydro-pyrido[4,3-d]pyrimidine] | 9 | 75 | – | –
20 | C[C@@H]1Cc2ncnc(N3C[C@H]4CC[C@@H](C3)C4NC(=O)CC(F)(F)F)c2CN1c1cc(Cl)nc2[nH]ccc12 (stereo partly drawn) [Example 26, N-{3-[(7R)-6-{6-chloro-1H-pyrrolo[2,3-b]pyridin-4-yl}-7-methyl-5H,6H,7H,8H-pyrido[4,3-d]pyrimidin-4-yl]-3-aza-bicyclo[3.2.1]octan-8-yl}-3,3-trifluoro-propanamide] | 88 | – | – | 1000 to 10000
21 | C[C@@H]1Cc2ncnc([C@@H]3CCN(S(C)(=O)=O)C(C)(C)C3)c2CN1c1ccnc2[nH]ccc12 (single isomer, unassigned) [Example 48a] | 758 | 3330 | – | –
22 | C[C@@H]1Cc2ncnc(N3CC(C(C)(C)O)C3)c2CN1c1cc(Cl)nc2[nH]ccc12 [Example 33, 2-{1-[(7R)-6-{6-chloro-1H-pyrrolo[2,3-b]pyridin-4-yl}-7-methyl-5H,6H,7H,8H-pyrido[4,3-d]pyrimidin-4-yl]azetidin-3-yl}propan-2-ol] | 15 | 183 | – | –
23 | C[C@@H]1Cc2ncnc(C3CCCN(S(C)(=O)=O)C3)c2CN1c1ccnc2[nH]ccc12 (single isomer, unassigned) [Example 50a] | 55 | 1200 | – | –
24 | C[C@@H]1Cc2ncnc(N3CCN(S(C)(=O)=O)CC3)c2CN1c1cc(Cl)nc2[nH]ccc12 [Example 20, 1-[(7R)-6-{6-chloro-1H-pyrrolo[2,3-b]pyridin-4-yl}-7-methyl-5H,6H,7H,8H-pyrido[4,3-d]pyrimidin-4-yl]-4-methanesulfonyl-piperazine] | 97 | – | – | 1000 to 10000
25 | C[C@@H]1Cc2ncnc(N3CCC[C@H](NS(C)(=O)=O)C3)c2CN1c1cc(Cl)nc2[nH]ccc12 [Example 71, N-((S)-1-((R)-6-(6-chloro-1H-pyrrolo[2,3-b]-pyridin-4-yl)-7-methyl-5,6,7,8-tetrahydropyrido-[4,3-d]pyrimidin-4-yl)-piperidin-3-yl)-methanesulfonamide] | 7 | 73 | – | –
26 | C[C@@H]1Cc2ncnc(C3CCN(S(C)(=O)=O)CC3)c2CN1c1ccnc2[nH]ncc12 [Example 42, (R)-7-methyl-4-(1-(methylsulfonyl)piperidin-4-yl)-6-(1H-pyrazolo[3,4-b]pyridin-4-yl)-5,6,7,8-tetrahydropyrido[4,3-d] pyrimidine] | 3010 | – | – | 1000 to 10000
27 | CNC(=O)[C@@H]1CCCN(c2ncnc3c2CN(c2cc(Cl)nc4[nH]ccc24)[C@H](C)C3)C1 [Example 44, (R)-1-((R)-6-(6-Chloro-1H-pyrrolo[2,3-b]pyridin-4-yl)-7-methyl-5,6,7,8-tetrahydropyrido[4,3-d]pyrimidin-4-yl)-N-methylpiperidine-3-carboxamide] | 92 | 1040 | – | –

Source: patent US10421765B2, “Tetrahydropyrido[4,3-d]pyrimidine inhibitors of ATR kinase” (Board of Regents, The University of Texas System, priority 2017, dated 2019)
